Where a name gives a salt, the structure may show the parent alone.
Assays:
[1] = tested on: 5 kbp DNA; experiment: Atomic force microscopy (AFM, tapping mode) of DNA incubated with compound; conditions: 5 kbp DNA incubated with compound
From the text: The DNA-bguan interaction was confirmed with UV absorption spectra. The absorption maximum and the shape of the absorbance curve of DNA changed appreciably in the presence of 1 equivalent bguan, indicating a distinct change of its structure in buffer solution. In addition, when a 5 kbp DNA was examined under the atomic force microscope (AFM) in the tapping mode, nematoid (long warm-like) formations of up to 1 μm were observed. […] This actually proves that DNA compacts not in big aggregates but in nanoparticles of size suitable to cross a cell membrane.

[2] = tested on: ultrapure calf thymus DNA 13 kb; experiment: DNA compaction: electrophoresis in agarose gel with ethidium bromide as stain; type: binding; conditions: control substances, wells B-H and b (10 λ to 1 λ diluted 1:10)
[3] = tested on: HeLa cells; experiment: Cell penetration of FITC-labeled compounds by fluorescence microscopy; type: cell-based, human; conditions: 100 or 200 μM, 1 h incubation at 37° C.

`NCCNCC1OC2OC3C(CNCCN)OC(OC4C(CNCCN)OC(OC5C(CNCCN)OC(OC6C(CNCCN)OC(OC7C(CNCCN)OC(OC8C(CNCCN)OC(OC1C(O)C2O)C(O)C8O)C(O)C7O)C(O)C6O)C(O)C5O)C(O)C4O)C(O)C3O` (stereo not drawn) [bpen, Heptakis(6-deoxy-6-aminoethylamino)-β-cyclodextrin] was tested, and the “elongated (nematoid) DNA forms under AFM” value [1] was “complete absence of the elongated forms” and the “diameter of round DNA nanoparticles” value ([1]; AFM) was about 40 nm.
`N=C(N)N` [guanidine hydrochloride] was tested, and the “interaction with DNA under the electrophoresis conditions” value [2] was “do not display any kind of interaction with DNA”.
`OC[C@H]1O[C@@H]2O[C@H]3[C@H](O)[C@@H](O)[C@@H](O[C@H]4[C@H](O)[C@@H](O)[C@@H](O[C@H]5[C@H](O)[C@@H](O)[C@@H](O[C@H]6[C@H](O)[C@@H](O)[C@@H](O[C@H]7[C@H](O)[C@@H](O)[C@@H](O[C@H]8[C@H](O)[C@@H](O)[C@@H](O[C@H]1[C@H](O)[C@H]2O)O[C@@H]8CO)O[C@@H]7CO)O[C@@H]6CO)O[C@@H]5CO)O[C@@H]4CO)O[C@@H]3CO` [β-cyclodextrin] was tested, and the “interaction with DNA under the electrophoresis conditions” value [2] was “do not display any kind of interaction with DNA”.
With “fluorescein isothiocyanate [treated FITC]” the “fluorescence inside the cytoplasm” value [3] was “did not show any fluorescence”.
